Laboratory results as given in US4978332A, “Treatments employing vasoconstrictive substances in combination with cytotoxic agents for introduction into cellular lesion areas” (priority 1987, dated 1990).
Where a name gives a salt, the structure may show the parent alone. Read-outs that look alike come from different tables or passages of the source.

Key:
[1] = test system: RIF-1 murine fibrosarcoma
Method: The transplantable experimental murine fibrosarcomas RIF-1 or KHT were grown intradermally (2×10^5 cells injected i.d.) in the flank of 5 month old male C3H mice. When tumors reached a volume of ~100 mm^3 they were used for the studies. […] Drug concentrations were: adriamycin, 3.75 mg/ml: BCNU, 10 mg/ml: vinblastine, 1.2 mg/ml; and 5-fluorouracil, 30 mg/ml. The drugs were administered intraperitoneally (i.p.) or intratumorally (i.t.) in an injection volume of 0.1 ml. The tumors of the treated mice as well as untreated control tumors were measured three times per week by vernier calipers and their volumes were calculated by the formula:
*This ratio indicated the time it would take a treated tumor to grow to
4× its initial size, divided by the time it would take an untreated
tumor to grow to 4× its initial size.

KHT murine fibrosarcoma = assay: Tumor growth ratio (time to grow to 4x initial volume, treated/untreated), KHT fibrosarcoma in C3H mice; format: in vivo, mouse (C3H)
Method: (§1) The transplantable experimental murine fibrosarcomas RIF-1 or KHT were grown intradermally (2×10^5 cells injected i.d.) in the flank of 5 month old male C3H mice. When tumors reached a volume of ~100 mm^3 they were used for the studies. The cytotoxic drugs under study (all were formulated for human clinical use) were made up just prior to use in their appropriate aqueous vehicle except those experimental groups in which epinephrine-HCl (1 mg/ml) was added to the aqueous drug (usually ~10% of total volume). Drug concentrations were: adriamycin, 3.75 mg/ml: BCNU, 10 mg/ml: vinblastine, 1.2 mg/ml; and 5-fluorouracil, 30 mg/ml. The drugs were administered intraperitoneally (i.p.) or intratumorally (i.t.) in an injection volume of 0.1 ml. The tumors of the treated mice as well as untreated control tumors were measured three times per week by vernier calipers and their volumes were calculated by the formula: […]
(§2) where D1 -D3 are tumor diameters in mm. The time (days) for the tumors to grow to four times their original experimental volume was used as a parameter of treatment effectiveness.

[2] = test system: murine fibrosarcomas RIF-1 or KHT; conditions: epinephrine 1 mg/kg alone
Method: as §1, §2

[3] = 2 mg/kg BW i.t., Epi 1 mg/kg where combined

SMILES: O=c1[nH]cc(F)c(=O)[nH]1 [5-Fluorouracil, 5-fluorouracil]
- Tumor Growth Ratio ([1]; 100 mg/kg BW i.p.): 1.20
- Tumor Growth Ratio ([1]; 100 mg/kg BW i.t., Epi 1 mg/kg where combined): 1.30

SMILES: COc1cccc2c1C(=O)c1c(O)c3c(c(O)c1C2=O)C[C@@](O)(C(=O)CO)C[C@@H]3O[C@H]1C[C@H](N)[C@H](O)[C@H](C)O1 [Adriamycin, doxorubicin hydrochloride]
- Tumor Growth Ratio ([1]; 15 mg/kg BW i.p.): 1.63
- Tumor Growth Ratio ([1]; 15 mg/kg BW i.t., Epi 1 mg/kg where combined): 3.04

SMILES: O=NN(CCCl)C(=O)NCCCl [BCNU (carmustine), carmustine]
- Tumor Growth Ratio (KHT murine fibrosarcoma; 40 mg/kg BW i.t., Epi 1 mg/kg where combined): 2.08

SMILES: CNC[C@H](O)c1ccc(O)c(O)c1 [Epinephrine, epinephrine]
- chemotherapeutic effect when used alone [2]: not chemotherapeutic when used alone

SMILES: CC[C@]1(O)C[C@@H]2CN(CCc3c([nH]c4ccccc34)[C@@](C(=O)OC)(c3cc4c(cc3OC)N(C)[C@H]3[C@@](O)(C(=O)OC)[C@H](OC(C)=O)[C@]5(CC)C=CCN6CC[C@]43[C@@H]65)C2)C1 [Vinblastine, vinblastine sulfate]
- Tumor Growth Ratio ([1]; 2 mg/kg BW i.p.): 1.12
- Tumor Growth Ratio [1, 3]: 3.01
- Tumor Growth Ratio (KHT murine fibrosarcoma; 2 mg/kg BW i.p.): 1.16
- Tumor Growth Ratio (KHT murine fibrosarcoma; [3]): 1.76
